Reference: ChEMBL document CHEMBL1201862, “PubChem BioAssay data set” (2004)
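Method: 48-hour compound exposure of cells in 96-well plates, five concentrations, linear interpolation of endpoints. GI50 marks 50% less growth.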 The source made the active and inactive calls. No stated cut-off is given here; in the data, active = GI50 up to about 1.1 µM and inactive = higher.

What was measured:
Assay in all cases: NCI anticancer screen, dose series, 48 h
[1] = test system: LOX IMVI
[2] = test system: HL-60
[3] = test system: UACC-62
[4] = test system: HCT-15
[5] = test system: RXF 393
[6] = test system: OVCAR-8
[7] = test system: RPMI-8226
[8] = test system: HCC 2998
[9] = test system: Hs-578T
[10] = test system: SF-539
[11] = test system: SK-OV-3
[12] = test system: 786-0
[13] = test system: KM12
[14] = test system: SW-620
[15] = test system: SNB-19
[16] = test system: MDA-MB-435
[17] = test system: NCI-H460
[18] = test system: MOLT-4
[19] = test system: SN12C
[20] = test system: HOP-92

| Compound | GI50 [1] | GI50 [2] | GI50 [3] | GI50 [4] [µM] | GI50 [5] | GI50 [6] | GI50 [7] | GI50 [8] | GI50 [9] | GI50 [10] | GI50 [11] | GI50 [12] | GI50 [13] | GI50 [14] | GI50 [15] | GI50 [16] | GI50 [17] | GI50 [18] | GI50 [19] | GI50 [20] |
| --- | --- | --- | --- | --- | --- | --- | --- | --- | --- | --- | --- | --- | --- | --- | --- | --- | --- | --- | --- | --- |
| O=C(CCCCCNC(=O)c1ccc(Cl)cc1)NO | 4.76 µM (inactive) | 3.77 µM (inactive) | 3.03 µM (inactive) | 15.3 | 3.66 µM (inactive) | 3.41 µM (inactive) | 3.09 µM (inactive) | 4.5 µM (inactive) | 8.99 µM (inactive) | 5.55 µM (inactive) | 6.38 µM (inactive) | 7.03 µM (inactive) | 6.59 µM (inactive) | 2.82 µM (inactive) | 15 µM (inactive) | 3.11 µM (inactive) | 4.07 µM (inactive) | 1.88 µM (inactive) | 5.51 µM (inactive) | 2.81 µM (inactive) |
| CCCCCNC1=CC(=O)c2ccccc2C1=O | 22.6 µM (inactive) | 18.5 µM (inactive) | 33.7 µM (inactive) | 52.2 | 21.7 µM (inactive) | 23 µM (inactive) | > 91.8 µM (inactive) | > 78.2 µM (inactive) | 27.8 µM (inactive) | 20.6 µM (inactive) | > 51.4 µM (inactive) | 18.4 µM (inactive) | > 100 µM (inactive) | > 100 µM (inactive) | 24.3 µM (inactive) | > 100 µM (inactive) | 34.5 µM (inactive) | > 100 µM (inactive) | 49.9 µM (inactive) | 17.4 µM (inactive) |
| NC(=O)[C@H](Cc1ccc(O)cc1)NC1=C(Cl)C(=O)c2c(O)ccc(O)c2C1=O | 1.61 µM (inactive) | 1.04 µM (active) | 1.85 µM (inactive) | 1.79 | 3.52 µM (inactive) | 2.54 µM (inactive) | 2.25 µM (inactive) | 2.37 µM (inactive) | 3.71 µM (inactive) | 2.17 µM (inactive) | > 10 µM (inactive) | 2.02 µM (inactive) | 2.67 µM (inactive) | 1.06 µM (active) | > 10 µM (inactive) | 2.07 µM (inactive) | 7.76 µM (inactive) | 0.55 µM (active) | 3.55 µM (inactive) | 2.13 µM (inactive) |
| BC(=O)NC(CC(C)C)C(=O)NCC(=O)NC1c2ccsc2C(=O)C1O.CN(C)C (stereo not given) | > 100 µM (inactive) | > 100 µM (inactive) | > 100 µM (inactive) | > 100 | > 100 µM (inactive) | > 100 µM (inactive) | > 100 µM (inactive) | > 100 µM (inactive) | > 100 µM (inactive) | > 100 µM (inactive) | > 100 µM (inactive) | > 100 µM (inactive) | > 100 µM (inactive) | > 100 µM (inactive) | > 100 µM (inactive) | > 100 µM (inactive) | 31.6 µM (inactive) | > 100 µM (inactive) | > 100 µM (inactive) | > 100 µM (inactive) |
| O=C(Nc1ccc(Cl)cc1)NS(=O)(=O)c1coc2ccccc2c1=O | > 10 µM (inactive) | > 10 µM (inactive) | > 10 µM (inactive) | > 10 | > 10 µM (inactive) | > 10 µM (inactive) | > 10 µM (inactive) | > 10 µM (inactive) | > 10 µM (inactive) | > 10 µM (inactive) | > 10 µM (inactive) | > 10 µM (inactive) | > 10 µM (inactive) | > 10 µM (inactive) | > 10 µM (inactive) | > 10 µM (inactive) | > 10 µM (inactive) | > 10 µM (inactive) | > 10 µM (inactive) | > 10 µM (inactive) |
